Experimental findings from US20140187423A1, “Fungicidal substituted 1--1H-[1,2,4]triazole compounds” (BASF SE, priority 2011, published 2014) are described below.

In one assay the test system is Septoria tritici. In words: Green house G2: preventative control of leaf blotch on wheat caused by Septoria tritici (Septtr P7). The class given is in vivo. To be noted: wheat seedlings sprayed 7 days before inoculation, % diseased leaf area, untreated control 70. On the procedure:
The spray solutions were prepared in several steps: The stock solution were prepared: a mixture of acetone and/or dimethylsulfoxide and the wetting agent/emulsifier Wettol, which is based on ethoxylated alkylphenoles, in a relation (volume) solvent-emulsifier of 99 to 1 was added to 25 mg of the compound to give a total of 5 ml. Water was then added to total volume of 100 ml. This stock solution was diluted with the described solvent-emulsifier-water mixture to the given concentration. G2. Preventative control of leaf blotch on wheat caused by Septoria tritici (Septtr P7) Leaves of pot-grown wheat seedling were sprayed to run-off with an aqueous suspension of the active compound or their mixture, prepared as described. The plants were allowed to air-dry. Seven days later the plants were inoculated with an aqueous spore suspension of Septoria tritici. Then the trial plants were immediately transferred to a humid chamber at 18-22° C. and a relative humidity close to 100%. After 4 days the plants were transferred to a chamber with 18-22° C. and a relative humidity close to 70%. After 4 weeks the extent of fungal attack on the leaves was visually assessed as % diseased leaf area.

For another assay, the system named is Phakopsora pachyrhizi. In words: Green house G1: protective control of soy bean rust on soy beans caused by Phakopsora pachyrhizi (Phakpa P2). The class given is in vivo. To be noted: soy bean seedlings sprayed 2 days before inoculation, % diseased leaf area, untreated control 70. How it is done:
The spray solutions were prepared in several steps:
The stock solution were prepared: a mixture of acetone and/or dimethylsulfoxide and the wetting agent/emulsifier Wettol, which is based on ethoxylated alkylphenoles, in a relation (volume) solvent-emulsifier of 99 to 1 was added to 25 mg of the compound to give a total of 5 ml. Water was then added to total volume of 100 ml. This stock solution was diluted with the described solvent-emulsifier-water mixture to the given concentration.
G1. Protective control of soy bean rust on soy beans caused by Phakopsora pachyrhizi (Phakpa P2)
Leaves of pot-grown soy bean seedlings were sprayed to run-off with an aqueous suspension, containing the concentration of active ingredient or their mixture as described below. The plants were allowed to air-dry. The trial plants were cultivated for 2 days in a greenhouse chamber at 23-27° C. and a relative humidity between 60 and 80%. Then the plants were inoculated with spores of Phakopsora pachyrhizi. To ensure the success the artificial inoculation, the plants were transferred to a humid chamber with a relative humidity of about 95% and 20 to 24° C. for 24 h. The trial plants were cultivated for fourteen days in a greenhouse chamber at 23-27° C. and a relative humidity between 60 and 80%. The extent of fungal attack on the leaves was visually assessed as % diseased leaf area.

As to `CCOC(Cn1cncn1)c1ccc(Oc2ccc(Cl)cc2)cc1Cl` (centres unmarked) [prior art compound], the “Disease (%) at 16 ppm Septtr P7” value in the assay with Septoria tritici is 50%. The “Disease (%) at 16 ppm Phakpa P2” value with Phakopsora pachyrhizi was found to be 70%.
